One data set concerns pancreatic acini. Description: Acinar-adipocyte co-culture. It counts as cell-based, mice. The source says: Harvesting cells: Primary acinar cells from wild type mice (C57B6) were harvested and used as described previously. Viability, confirmed by trypan blue exclusion, was >95%. […] These were used in the individual experiments. Data presented is representative of 3 or more experiments. Acinar-adipocyte co-culture: This was done in 12-well companion plates with cell culture inserts (FIG. 14). […] Serum and medium cytokine assays: These were done for TNF-α, MCP-1, IL-6, resistin, and adiponectin using the fluorescence-based capture sandwich immunoassay based on the Luminex FlowMetrix system (Luminex). The Milliplex Mouse Adipokine Panel (7-Plex) 1 kit from Millipore (Billerica, Mass.) was used. Samples were analyzed using the Bio-Plex suspension array system, which included a fluorescent reader and Bio-Plex Manager analytical software (Bio-Rad Laboratories, Hercules, Calif.) at the University of Pittsburgh, Cancer Institute Luminex Core Facility. Visceral fat triglyceride composition: The visceral fat triglyceride composition analysis was done at Kennedy Krieger Institute (Baltimore, Md.). Briefly, total lipids were extracted by the method of Folch. […] The fatty acids were derivatized and analyzed by GCMS as their pentafluorbenzylbromide esters. ATP levels, cytochrome C release, and % LDH leakage were measured as previously described. Apoptosis was measured by active caspase-3 [western blotting, activity assays (Enzcheck, Invitrogen, Carlsbad, Calif.)], TUNEL assays, and Hoechst dye nuclear incorporation (8 mg/ml Hoechst 33342 added for 15 minutes after treatment). […] Results were reported as % of cells with given nuclear changes. These were counter stained with PI (1 μM) to stain necrotic cells (FIG. 7A, B, C) and imaged with a Zeiss Meta dual fluorescence confocal microscope. PI-positive cells were counted as late apoptosis or necrosis. […] Autophagy was studied by western blotting for LC3-I and II. RNA was extracted using Trizol (Invitrogen, Carlsbad, Calif.). mRNA levels of TNF-α, CXCL1, and CXCL2 were measured as described previously using real time-PCR performed on an ABI Prism 7000 Sequence Detection System (Applied Biosystems, Foster City, Calif.) on proprietary Taqman Gene Expression assay reagents (Applied Biosystems). Mitochondrial complex assays and citrate synthase assay were done as described previously.

The next data set has as its system adipocytes. Description: Isoproterenol-stimulated glycerol release in adipocyte culture. Type of data set: cell-based.
Another data set deals with ob/ob mice. Nature of the data set: IL12+18 pancreatitis model. It counts as in vivo. To be noted: for pancreatic changes: fat necrosis, saponification, peri-fat acinar necrosis, acinar necrosis, hypocalcemia (gross, histologic, biochemical): orlistat 50 mg/kg every 12 hours from 2 hours after induction; for serum SFA levels: orlistat vs IL+Veh group. From the text: For histologic evaluation, we retrieved all hematoxylin and eosin-stained slides of the pancreas (1-4 in number) of control and acute pancreatitis patients. A trained pathologist with specific interest in gastrointestinal pathology blinded to demographic and clinical data examined the slides. Adipose tissue with large vessels and nerves not bounded by at least 2 pieces of pancreatic parenchyma was regarded as peripancreatic and excluded. The remaining adipose tissue, necrotic fat (bluish cheesy appearance of adipocytes), necrotic parenchyma, and parenchymal necrosis immediately contiguous to areas of fat necrosis (peri-fat acinar necrosis; PFAN) were additionally measured. All of these were measured as a percentage pixel area of each individual field after excluding dead space using Adobe Photoshop PS. The pixel areas of individual parameters for each case were added. The final number was divided by the number of fields to give a percentage area for that parameter in the section. For patients with more than 1 section, the average of the percentage of intrapancreatic fat for all fields from different sections was chosen as representative for the specimen. Von Kossa (to study fat necrosis, saponification), TUNEL (Terminal deoxynucleotidyl transferase dUTP nick end labeling), and oil red O staining were done per standard protocol.
Serum and medium cytokine assays: These were done for TNF-α, MCP-1, IL-6, resistin, and adiponectin using the fluorescence-based capture sandwich immunoassay based on the Luminex FlowMetrix system (Luminex). The Milliplex Mouse Adipokine Panel (7-Plex) 1 kit from Millipore (Billerica, Mass.) was used. Samples were analyzed using the Bio-Plex suspension array system, which included a fluorescent reader and Bio-Plex Manager analytical software (Bio-Rad Laboratories, Hercules, Calif.) at the University of Pittsburgh, Cancer Institute Luminex Core Facility.
Pancreatitis model: IL12+18 model: There were 8-12 animals in each group. Pancreatitis was induced as described previously in 8-10 week old female ob-ob (B6.V-Lepob/J) mice. Briefly, IL-12 (150 ng/dose/mouse) and IL-18 (750 ng/dose/mouse) were simultaneously given intraperitoneally in 2 doses, 24 hours apart. Orlistat at reduced dose than previously published (50 mg/kg) was administered in vehicle (0.1 ml 30% ethanol) as described previously. First injection of orlistat or vehicle was 2 hours after induction of pancreatitis, and these were then repeated every 12 hours.
Non-esterified fatty acid analysis: The sample was extracted with isopropanol-heptane-hydrochloric acid (1M) (40:10:1, v/v) by vortexing for 25-30 min and allowed to incubate at room temperature for 10 minutes. Heptane (4.0 ml) and water (2.0 ml) were added, and the tubes were thoroughly vortexed for 5 minutes. Tubes were centrifuged at 1000 g for 10 minutes at 4° C., and the upper phase (heptane) is transferred into 13×100 mm screw top tubes and dried in a SpeedVac centrifugal concentrator. Non-esterified fatty acids were derivatized with dimethylamine using the Deoxo-Fluor reagent. Non-esterified fatty acid concentrations are measured by gas chromatography separation with flame ionization detection using heptanoic acid as an internal standard. This derivatization method is very mild and efficient and is selective only towards non-esterified fatty acids so that no separation from a total lipid extract is required.

The subject of another data set is mouse melanoma model. To be noted: Carvalho et al., Int. J. Cancer 2008; cited from earlier work.
In a further data set the test system is Male Wistar rats. Nature of the data set: Intraductal infusion of glyceryl trilinoleate (GTL) pancreatitis. It counts as in vivo. The procedure: Experiments were performed using a model, the technique of which is established and well described in rats (1, 2, 4, 7). This involves infusion of agents into the pancreatic duct to cause acute pancreatitis (1, 2, 4, 7). We will refer to this technique as “intraductal infusion”. We compared the severity of pancreatic damage and survival of rats after intraductal infusion of Glyceryl trilinoleate with and without the lipase inhibitor orlistat. In addition, we used a different lipase inhibitor-cetilistat (3, 6), and studied its efficacy in improving survival of rats in intraductal infusion pancreatitis induced with Glyceryl trilinoleate (GTL).
Male Wistar rats (250-350 gm), were anesthetized. Intraductal infusion of 0.1 ml (n=5) or 0.2 ml (n=5) of GTL (Sigma-Aldrich corporation) alone or GTL+orlistat (Caymen chemical, Ann Arbor, Mich.) (75 mg/ml, 0.1 ml n=5 or 0.2 ml n=5) or GTL+cetilistat (Jinan Wedo Industrial Co., Ltd., Jinan City, Shandong China) (25 mg/ml, 0.2 ml, n=10) was done as described previously (1, 2, 4, 7). All animals were given pain control (buprenorphine 200 mcg/kg BID), Cefazolin (100 mg/kg), and 10 cc saline subcutaneously BID as per the IACUC protocol. These were followed for survival.

Where [1] appears, read: orlistat 50 μM, acini co-cultured with adipocytes.
Setting [2] is: orlistat 50 mg/kg every 12 hours.
The mark [3] stands for this setting: in combination with GTL, at necropsy.

Entries after “also recorded” stand apart in the source; their conditions may differ.

For `CCCCCCCCCCC[C@@H](C[C@@H]1OC(=O)[C@H]1CCCCCC)OC(=O)[C@H](CC(C)C)NC=O` [orlistat], the “amylase secretory response to caerulein after co-culture” value with pancreatic acini (50 μM orlistat, basal, 100 pM and 100 nM caerulein) is “amylase secretory pattern like control acini”. The “resistin levels in the medium” value in the data set with pancreatic acini (50 μM orlistat, co-culture) was “prevents increase in resistin”. In the data set with pancreatic acini (setting [1]), the “acinar cell viability and function” value is “restored acinar cell viability and function to control levels”; the “co-culture induced acinar cell changes (necrosis: propidium iodide positivity, drop in ATP levels, cytochrome c leakage; NEFA and resistin increase in medium)” value is “completely prevented”. For the same compound, the “10 μM isoprotrenol stimulated increase in glycerol levels” value in the data set with adipocytes (50 μM orlistat, 1 hour adipocyte culture) is “not significantly prevented”. In addition, the “permeability through cell membranes” value in the data set on adipocytes (inferred from glycerol release experiment) is given as “limited permeability; also recorded: low permeability”. Further, the “serum amylase and lipase levels” value in the data set with ob/ob mice (compared with IL or IL+Veh groups) is given as “significantly reduced”. In the data set on ob/ob mice (setting [2]), the “lung injury (apoptotic cells, lung MPO levels)” value is recorded as “significantly reduced”; the mortality result is listed as “significantly reduced”; the “renal end organ damage (BUN, tubular vacuoles, oil red O, TUNEL, mitochondrial swelling, saponification)” value is on record as “normalized”; the “serum UFA levels” value is “significantly reduced”. In addition, the “serum resistin, TNF-α, MCP-1 and IL-6” value in the data set on ob/ob mice (setting [2]) is “normalized”. In the data set with ob/ob mice, the “pancreatic changes: fat necrosis, saponification, peri-fat acinar necrosis, acinar necrosis, hypocalcemia (gross, histologic, biochemical)” value is on record as “prevents saponification” and the “serum SFA levels” value is reported as “not significantly reduced”. For the same compound, in the data set with ob/ob mice (listed as Orlistat), the “pancreatic changes: fat necrosis, saponification, peri-fat acinar necrosis, acinar necrosis, hypocalcemia (gross, histologic, biochemical)” value is “significantly blocked” and the “serum SFA levels” value is “did not significantly reduce”. The “renal end organ damage (BUN, tubular vacuoles, oil red O, TUNEL, mitochondrial swelling, saponification)” value in the data set on ob/ob mice (orlistat 50 mg/kg every 12 hours, listed as Orlistat) was “reduces these”. Moreover, the “apoptosis, cell growth and lymph node metastasis” value in the data set with mouse melanoma model is “promote apoptosis and reduce cell grown and lymph node metastasis”. The mortality with Male Wistar rats (dead/total, intraductal GTL alone, GTL+orlistat 75 mg/ml, GTL+cetilistat 25 mg/ml, followed to day 5) is on record as 0/10. In the data set with Male Wistar rats (setting [3]), the “lung injury (TUNEL positive nuclei)” value is recorded as “absence of TUNEL positive nuclei” and the “renal injury (TUNEL positive nuclei)” value is on record as “nearly completely prevented”. Also, the “lung injury (TUNEL positive nuclei)” value in the data set on Male Wistar rats (in combination with GTL, at necropsy, listed as Orlistat) was “nearly completely prevented”. The “gross pancreatic appearance: hemorrhages and necrosis” value in the data set on Male Wistar rats (intraductal GTL with or without lipase inhibitor) was “prevented the hemorrhages and necrosis up to 5 days”.

The values are drawn from US9943499B2, “Lipase inhibitors for the treatment of pancreatitis and organ failure” (priority 2011, dated 2018).
